Measured values reported in patent EP0465913B1, “Diaminotrifluoromethylpyrimidine derivatives, process for their production and phospholipase A2 inhibitor containing them” (ISHIHARA SANGYO KAISHA, LTD., priority 1990, dated 1992).
Counter-ions that a name gives are not always drawn.

What was measured:
ddy male mice = experiment: Acute toxicity, intravenous injection (LD50); assay type: in vivo; conditions: sodium salt, mortality over one week, 10080 min
Description: Administration route: Intravenous injection
Using ddy male mice (body weight: 25 - 30 g), each test group consisted of 5 mice. A test compound was dissolved in the form of a sodium salt in a physiological saline or in a 5% glucose aqueous solution, and intravenously injected in an amount of 0.1 ml/10 g body weight. After the injection, the mortality rate was obtained over one week, and the median lethal dose LD50 (mg/kg) was determined.

[1] = system: experimental acute pancreatitis model; experiment: Effects against acute pancreatitis (Test Example 7, closed duodenal loop method, gross pathological examination); assay type: in vivo, Crj-CD male rats; parameters: key: -: No significant lesions; ±: Minimal; +: Light; ++: Moderate; +++: Marked; conditions: 40 mg per kg continuous intravenous injection, examination 3 hours after ventrotomy, individual rats
Description: (§1) Using Crj-CD male rats (for Compound No. 19, rats having a body weight of from 371 to 484 g were used, and for Compound No. 10, rats having a body weight of from 444 to 574 g were used), each test group consisted of 3 rats. An experimental acute pancreatitis model was prepared by a closed duodenal loop method under anesthesia with halothane (manufactured by Hoechst Japan) and nitrous oxide (manufactured by Sumitomo Seika K.K.) applied by means of a general inhalation anesthesia machine (Model EM-2 and halothane evaporator F-Model). Then, Compound No. 19 or Compound No. 10 was continuously intravenously injected into the tail vein in an amount of 50 mg per kg or 40 mg per kg, respectively, at a rate of 0.05 ml per minute by means of a pump (Technicon AA II Proportioning Pump III, manufactured by Technicon Instruments Corporation). No injection was made to a control group. Gross pathological examination was conducted upon expiration of 6 hours after the ventrotomy in the case of the test group to which Compound No. 19 was administered, or upon expiration of 3 hours after the ventrotomy in the case of the test group to which Compound No. 10 was administered. As a result, as shown in the following Table 12, the groups to which the compounds of the present invention were administered, show distinct usefulness for treating acute pancreatitis.

[2] = system: experimental acute pancreatitis model; experiment: as above; assay type: in vivo, Crj-CD male rats; parameters: key: -: No significant lesions; ± ∼ +++: Focal-diffuse; ± ∼ +++: Focal-diffuse; ± ∼ +++: Focal-diffuse; ± ∼ +++: Focal-diffuse; conditions: 40 mg per kg continuous intravenous injection, examination 3 hours after ventrotomy, individual rats
Description: as §1

SMILES | LD50 (ddy male mice) | Pancreatic hemorrhage Petechia Distribution [1] | Pancreatic hemorrhage Petechia Distribution [2]
CCS(=O)(=O)Nc1ncc(C(F)(F)F)cc1NC(=O)C1CCCCC1 [Compound No. 251, sodium salt of N-(2-ethylsulfonylamino-5-trifluoromethyl-3-pyridyl)cyclohexanecarboxamide] | 65 mg/kg |  | 
CS(=O)(=O)Nc1ncc(C(F)(F)F)cc1NC(=O)c1ccc(F)cc1 [Compound No. 10, N-(2-methylsulfonylamino-5-trifluoromethyl-3-pyridyl)-4-fluorobenzamide] |  | - | ± and +
